Like-named read-outs stand apart in the source and are kept apart here.
How the values were obtained:
Nav 1.7 = Nav 1.7 (Homo sapiens (Human), UniProt Q15858); assay: Inhibition of sodium channels, Red Membrane Potential Dye FLIPR assay, veratridine depolarization; format: cell-based; conditions: HEK-293 cells overexpressing the channel; read-out: Nav1.7 IC50
Nav 1.5 = Nav 1.5 (Homo sapiens (Human), UniProt Q14524); assay: as above; format: cell-based; conditions: HEK-293 cells overexpressing the channel
Nav 1.5, sequence (Q14524 whole entry): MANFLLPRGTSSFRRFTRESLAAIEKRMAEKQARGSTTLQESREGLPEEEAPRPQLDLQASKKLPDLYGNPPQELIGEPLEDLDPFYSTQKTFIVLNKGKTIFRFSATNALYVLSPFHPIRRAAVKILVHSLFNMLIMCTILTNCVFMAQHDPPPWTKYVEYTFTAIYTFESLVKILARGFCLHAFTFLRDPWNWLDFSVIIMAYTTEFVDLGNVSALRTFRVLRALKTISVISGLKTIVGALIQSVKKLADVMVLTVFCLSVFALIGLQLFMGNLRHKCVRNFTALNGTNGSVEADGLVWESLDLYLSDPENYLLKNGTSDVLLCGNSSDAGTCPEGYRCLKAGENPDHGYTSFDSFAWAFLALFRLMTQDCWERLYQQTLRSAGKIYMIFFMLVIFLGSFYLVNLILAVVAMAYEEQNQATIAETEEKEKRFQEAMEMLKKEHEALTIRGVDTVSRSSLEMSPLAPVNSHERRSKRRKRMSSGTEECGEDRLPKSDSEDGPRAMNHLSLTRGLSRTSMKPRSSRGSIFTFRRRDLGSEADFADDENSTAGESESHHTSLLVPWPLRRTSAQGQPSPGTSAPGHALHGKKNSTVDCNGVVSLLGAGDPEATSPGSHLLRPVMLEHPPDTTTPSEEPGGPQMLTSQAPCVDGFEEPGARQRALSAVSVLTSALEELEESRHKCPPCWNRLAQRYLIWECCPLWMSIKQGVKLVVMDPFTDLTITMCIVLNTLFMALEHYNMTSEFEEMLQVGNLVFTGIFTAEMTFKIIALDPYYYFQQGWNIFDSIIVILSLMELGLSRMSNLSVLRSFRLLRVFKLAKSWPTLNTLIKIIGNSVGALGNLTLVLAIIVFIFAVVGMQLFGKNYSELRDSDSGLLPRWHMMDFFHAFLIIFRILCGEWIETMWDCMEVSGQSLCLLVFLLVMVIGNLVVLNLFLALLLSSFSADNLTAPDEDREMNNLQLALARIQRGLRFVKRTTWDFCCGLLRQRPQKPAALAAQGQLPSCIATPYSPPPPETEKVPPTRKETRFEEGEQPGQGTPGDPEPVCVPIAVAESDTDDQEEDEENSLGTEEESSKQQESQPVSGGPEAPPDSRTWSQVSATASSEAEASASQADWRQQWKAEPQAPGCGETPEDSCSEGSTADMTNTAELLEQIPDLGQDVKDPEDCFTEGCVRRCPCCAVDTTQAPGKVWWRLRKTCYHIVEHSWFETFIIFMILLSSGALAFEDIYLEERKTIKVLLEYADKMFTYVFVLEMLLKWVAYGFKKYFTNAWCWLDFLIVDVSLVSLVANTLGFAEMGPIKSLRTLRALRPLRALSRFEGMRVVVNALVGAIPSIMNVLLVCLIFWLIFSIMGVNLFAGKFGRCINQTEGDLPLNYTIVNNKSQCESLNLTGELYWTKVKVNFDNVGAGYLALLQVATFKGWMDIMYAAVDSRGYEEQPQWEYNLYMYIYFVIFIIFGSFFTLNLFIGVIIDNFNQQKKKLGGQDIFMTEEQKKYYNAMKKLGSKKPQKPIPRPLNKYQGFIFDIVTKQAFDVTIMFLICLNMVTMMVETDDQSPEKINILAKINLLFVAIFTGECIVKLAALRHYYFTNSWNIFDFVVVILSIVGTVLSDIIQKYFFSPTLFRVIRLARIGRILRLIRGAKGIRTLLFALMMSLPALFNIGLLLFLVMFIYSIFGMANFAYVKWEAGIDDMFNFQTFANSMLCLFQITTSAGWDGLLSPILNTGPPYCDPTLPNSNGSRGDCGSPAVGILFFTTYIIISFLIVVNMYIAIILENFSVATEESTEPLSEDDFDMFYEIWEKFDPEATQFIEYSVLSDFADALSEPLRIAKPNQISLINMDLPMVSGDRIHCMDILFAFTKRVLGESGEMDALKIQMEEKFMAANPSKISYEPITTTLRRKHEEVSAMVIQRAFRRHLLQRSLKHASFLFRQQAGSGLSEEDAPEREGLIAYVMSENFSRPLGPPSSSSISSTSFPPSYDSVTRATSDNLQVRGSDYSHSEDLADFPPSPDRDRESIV

Nav 1.7, sequence (Q15858 whole entry): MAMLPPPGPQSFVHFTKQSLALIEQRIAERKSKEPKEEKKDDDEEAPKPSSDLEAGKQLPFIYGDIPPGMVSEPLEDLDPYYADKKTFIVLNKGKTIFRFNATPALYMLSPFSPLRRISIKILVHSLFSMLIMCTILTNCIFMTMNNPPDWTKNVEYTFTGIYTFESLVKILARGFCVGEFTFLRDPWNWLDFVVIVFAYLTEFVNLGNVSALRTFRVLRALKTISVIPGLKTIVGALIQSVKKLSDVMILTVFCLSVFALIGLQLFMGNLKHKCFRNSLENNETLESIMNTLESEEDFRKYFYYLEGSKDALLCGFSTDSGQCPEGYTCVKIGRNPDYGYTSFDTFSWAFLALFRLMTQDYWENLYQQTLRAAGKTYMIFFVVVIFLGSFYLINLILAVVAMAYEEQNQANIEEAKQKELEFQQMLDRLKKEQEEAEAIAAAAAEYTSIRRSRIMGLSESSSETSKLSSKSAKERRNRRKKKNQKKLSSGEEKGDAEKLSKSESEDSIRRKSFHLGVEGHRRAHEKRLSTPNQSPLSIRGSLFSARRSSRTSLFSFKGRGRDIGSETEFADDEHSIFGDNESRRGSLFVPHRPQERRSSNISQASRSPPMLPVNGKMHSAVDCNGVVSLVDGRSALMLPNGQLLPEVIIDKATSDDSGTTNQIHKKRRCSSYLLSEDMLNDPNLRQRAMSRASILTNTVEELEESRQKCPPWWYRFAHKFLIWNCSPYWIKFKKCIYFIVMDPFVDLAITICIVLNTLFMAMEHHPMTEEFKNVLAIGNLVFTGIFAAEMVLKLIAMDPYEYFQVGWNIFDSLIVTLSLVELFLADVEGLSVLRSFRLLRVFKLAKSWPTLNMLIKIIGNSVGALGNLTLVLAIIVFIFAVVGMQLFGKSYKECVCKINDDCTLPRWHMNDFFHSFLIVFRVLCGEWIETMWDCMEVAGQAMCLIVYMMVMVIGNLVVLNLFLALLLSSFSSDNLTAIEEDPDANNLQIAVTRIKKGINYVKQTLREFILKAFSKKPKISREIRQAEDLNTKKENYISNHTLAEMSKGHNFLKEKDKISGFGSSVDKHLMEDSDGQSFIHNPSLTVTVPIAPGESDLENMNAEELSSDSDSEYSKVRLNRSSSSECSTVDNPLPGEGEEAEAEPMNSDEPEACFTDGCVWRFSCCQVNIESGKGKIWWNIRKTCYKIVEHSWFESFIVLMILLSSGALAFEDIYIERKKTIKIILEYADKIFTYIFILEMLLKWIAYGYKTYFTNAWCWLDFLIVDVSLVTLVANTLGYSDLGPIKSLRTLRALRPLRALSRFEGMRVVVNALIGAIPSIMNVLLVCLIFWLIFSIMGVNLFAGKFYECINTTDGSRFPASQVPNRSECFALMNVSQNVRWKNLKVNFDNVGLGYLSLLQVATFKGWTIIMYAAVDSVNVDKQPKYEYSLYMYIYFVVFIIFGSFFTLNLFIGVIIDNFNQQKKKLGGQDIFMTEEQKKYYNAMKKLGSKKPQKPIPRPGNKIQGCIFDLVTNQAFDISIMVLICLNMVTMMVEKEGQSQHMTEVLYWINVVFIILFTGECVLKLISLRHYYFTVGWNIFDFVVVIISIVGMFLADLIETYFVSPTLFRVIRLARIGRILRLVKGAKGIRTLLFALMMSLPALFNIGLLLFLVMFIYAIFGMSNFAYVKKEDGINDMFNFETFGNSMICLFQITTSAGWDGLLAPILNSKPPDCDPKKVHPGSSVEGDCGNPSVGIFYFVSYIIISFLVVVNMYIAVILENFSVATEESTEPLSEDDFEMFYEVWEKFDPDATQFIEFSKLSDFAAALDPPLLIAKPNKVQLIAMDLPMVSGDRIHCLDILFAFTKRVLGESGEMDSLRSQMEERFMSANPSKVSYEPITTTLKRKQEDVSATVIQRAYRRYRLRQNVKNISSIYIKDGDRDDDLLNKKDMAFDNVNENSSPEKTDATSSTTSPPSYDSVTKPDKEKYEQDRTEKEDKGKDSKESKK

CCCc1cc(C(F)(F)F)ccc1C1CCOc2cc(S(=O)(=O)Nc3cccnn3)ccc21 (stereo not shown) [Example-242]
IC50 (Nav 1.7): 1060 nM
IC50 (Nav 1.5; read-out: Nav1.5 IC50): 3.65 µM

CCCc1cc(C(F)(F)F)ccc1C1CCOc2cc(S(=O)(=O)Nc3cccnn3)ccc21 (stereo not shown) [Example-243]
IC50 (Nav 1.7): 92 nM
IC50 (Nav 1.5; read-out: Nav1.5 IC50): 2.41 µM

CCCc1cc(C(F)(F)F)ccc1[C@@H]1CCOc2cc(S(=O)(=O)Nc3cccc(F)n3)ccc21 [Example-244, (S&R)—N-(6-fluoropyridin-2-yl)-4-(2-propyl-4-(trifluoromethyl)phenyl)chroman-7-sulfonamide]
IC50 (Nav 1.7): 474 nM
Nav1.5 % inhibition @ 10 μM (Nav 1.5): 69%

CCCc1cc(C(F)(F)F)ccc1[C@H]1CCOc2cc(S(=O)(=O)Nc3cccc(F)n3)ccc21 [Example-245, (S&R)—N-(6-fluoropyridin-2-yl)-4-(2-propyl-4-(trifluoromethyl)phenyl)chroman-7-sulfonamide]
IC50 (Nav 1.7): 41 nM
Nav1.5 % inhibition @ 10 μM (Nav 1.5): 75%

O=C(O)c1ccc(-c2cc(C(F)(F)F)ccc2[C@H]2CCOc3cc(S(=O)(=O)Nc4ncc(F)cn4)ccc32)cc1 [compound 190, (S&R)-2′-(7-(N-(5-fluoropyrimidin-2-yl)sulfamoyl)chroman-4-yl)-5′-(trifluoromethyl)-[1,1′-biphenyl]-4-carboxylic acid]
IC50 (Nav 1.7): 257 nM
IC50 (Nav 1.5; read-out: Nav1.5 IC50 (bound given in μM)): > 10 µM

— patent US10239869B2, “Sulfonamide compounds as voltage-gated sodium channel modulators” (LUPIN LIMITED, priority 2015, dated 2019)
